Assay results reported in patent US12202805B2, “Process for preparing (5S)-{[2-(4-carboxyphenyl)ethyl] |2-(2-{|3-chloro-4'-(trifluoromethyl)biphenyl-4-yl]methoxy}phenyl)ethyl]aminol-5,6,7,8-tetrahydroquinoline-2-carboxylic acid and its crystalline forms for use as pharmaceutically active compound” (Bayer Aktiengesellschaft, priority 2021, dated 2025).
Read-outs that look alike come from different tables or passages of the source.

Key:
[1] = E-2.3 inhalative, oral and intravenous single doses in healthy male subjects: plasma concentrations and lung deposition; assay type: in vivo, human; conditions: for concentration at 0 h: 0 h after dose, heading: Geometric mean of plasma concentrations; for concentration at 0.25 h: 0.25 h after dose; for concentration at 0.5 h: 0.5 h after dose; for concentration at 0.75 h: 0.75 h after dose; for concentration at 1 h: 1 h after dose; for concentration at 1.5 h: 1.5 h after dose; for concentration at 2 h: 2 h after dose; for concentration at 2.5 h: 2.5 h after dose; for concentration at 3 h: 3 h after dose; for concentration at 4 h: 4 h after dose; for concentration at 6 h: 6 h after dose; for concentration at 8 h: 8 h after dose; for concentration at 12 h: 12 h after dose; for concentration at 15 h: 15 h after dose; for concentration at 24 h: 24 h after dose; for concentration at 28 h: 28 h after dose; for concentration at 32 h: 32 h after dose; for concentration at 36 h: 36 h after dose
Protocol: E-2.3 Inhalative, Oral and Intravenous Administration of Single Doses of sGC an Activator in Healthy Male Subjects—Lung Deposition
Healthy white male subjects, aged 18 to 45 years with a body mass index (BMI) above/equal 18.5 and below/equal 29.9 kg/m^2 were treated in a clinical phase I study with a single inhaled dose of 1000 μg (nominal dose), a single inhaled dose of 1000 μg (nominal dose)+charcoal block, a single oral dose of 1000 μg and a single infusion over 2 h of 100 μg of example 4. As the bioavailability of an intravenous application is generally 100% per definition and therefore higher than in case of an oral or […], the intravenous dose was carefully selected to be lower than the oral and inhaled dose to avoid higher plasma concentration resulting from a high IV dose and potential side effect, e.g. reduction in blood pressure or syncope. Therefore, 100 μg was selected for the IV dose in this investigation. Seven days washout period between treatments was applied. The subjects swallowed a solution for oral administration (20 ml comprising 1000 μg, see under C-2, table 26). The subjects received a solution as a single infusion over 2 hours (2 ml comprising 100 μg, see under C-2 table 26). The subjects inhaled the drug powder from capsules (see under C-1, tables 17 and 20) inserted into a handheld inhalation device by one deep inhalative breath. After inhalation of the dry powder formulation of this drug, some parts of the nominal dose remain in the capsule and the device, the dose which reaches the body at the mouthpiece is called the emitted dose. The emitted dose can be calculated/determined as followed: nominal dose−(remains in the capsule+remains in the device). After inhalation of the dry powder, one part of the emitted dose enters the gastrointestinal tract (GIT) and is called the oral part of the emitted dose, the other part of the emitted dose which reaches the lung through the respiratory airways is called the lung dose and represents the lung deposited dose. As the lung is the target organ of the effect, the lung deposited dose must be quantified. Lung deposition can be indirectly estimated, by determining the part of the nominal dose which reaches the GIT and the remains in the capsule and the device. To investigate and determine lung deposition, the following investigations were done (see also FIG. 59): • 1—Inhaled application of a single dose of 1000 μg of the dry powder. • 2—Inhaled application of a single dose of 1000 μg of the dry powder in combination with oral administration of charcoal block. The charcoal block capped the oral absorption of GIT part of the dose, as example 4 completely adsorbed to charcoal block. This implies that the concentrations of example 4 measured reach the systemic circulation via the lung. • 3—Administration of a single oral dose of […] example 4 to determine the oral absorption. • 4—Administration of a 2 h infusion of example 4 to investigate the elimination.

sGC = assay: E-2.2 inhalative administration in healthy male subjects for 14 days: cGMP; assay type: in vivo, human; conditions: 1000 μg once daily inhaled
Protocol: E-2.2 Inhalative Administration of sGC Activators in Healthy Male Subjects for 14 Days to Evaluate Steady State Pharmacokinetics
Healthy white male subjects, aged 18 to 45 years and with a body mass index (BMI) above/equal 18.5 and below/equal 29.9 kg/m2 were treated in a clinical pharmacological phase I study for 14 days with inhaled once daily doses of 1000 μg (nominal dose) of Placebo or of dry powder formulation containing example 4. The subjects inhaled the drug powder from capsules (see under C, e.g. tables 17 and 20) inserted into a handheld inhalation device by one deep inhalative breath into the deep parts of the lung. The intended substantial reduction of increased blood pressure in the central pulmonary blood vessels cannot be evaluated in subjects without pathophysiological impairment of lung function. As surrogate for drug concentration in the lung, plasma concentrations over time have been analysed. […] Drug activity/target engagement in healthy men was controlled in the healthy subjects by analysing blood samples for cGMP.

[2] = male, human, plasma, inhaled, 1000 μg, healthy male subjects, single 1000 μg inhale + Charcoal Block, N = 16, read-out: Geometric mean of plasma concentrations
[3] = male, human, plasma, inhaled, 1000 μg, healthy male subjects, single 1000 μg inhale, N = 16, read-out: Geometric mean of plasma concentrations
[4] = male, human, plasma, iv, 100 μg, healthy male subjects, 100 μg IV infusion over 2 h, N = 15, read-out: Geometric mean of plasma concentrations
[5] = male, human, plasma, po, 1000 μg, healthy male subjects, single 1000 μg oral, N = 16, read-out: Geometric mean of plasma concentrations

With `O=C(O)c1ccc(CCN(CCc2ccccc2OCc2ccc(-c3ccc(C(F)(F)F)cc3)cc2Cl)[C@H]2CCCc3nc(C(=O)O)ccc32)cc1` [example 4, (5S)—{[2-(4-Carboxyphenyl)ethyl][2-(2-{[3-chloro-4′-(trifluoromethyl)biphenyl-4-yl]methoxy}phenyl)-ethyl]amino}-5,6,7,8-tetrahydroquinoline-2-carboxylic acid as Monohydrate I] the emitted dose ([1]; after inhalation of 1000 μg in humans) was 720 µg, the “oral part of the dose” value ([1]; inhaled 1000 μg) was “approximately 13 % of the nominal dose” and the “lung dose (part of nominal dose that reached the lung)” value ([1]; inhaled dry powder) was 16.3 % of the nominal dose. For the same compound, the “total part of the dry powder reaching the body” value ([1]; inhaled dry powder) was 18.8 % of the nominal dose, the concentration at 0 h ([1]; male, human, plasma, inhaled, 1000 μg, healthy male subjects, single 1000 μg inhale + Charcoal Block, N = 16) was under 0.05 ng/mL and the concentration at 0.25 h [1, 2] was 0.0583 ng/mL. It also gave a concentration at 0.5 h [1, 2] of 0.261 ng/mL, a concentration at 0.75 h [1, 2] of 0.491 ng/mL and a concentration at 1 h [1, 2] of 0.662 ng/mL. The concentration at 1.5 h [1, 2] was 0.9 ng/mL, the concentration at 2 h [1, 2] was 0.969 ng/mL and the concentration at 2.5 h [1, 2] was 1.02 ng/mL. For the same compound, the concentration at 3 h [1, 2] was 0.933 ng/mL, the concentration at 4 h [1, 2] was 0.812 ng/mL and the concentration at 6 h [1, 2] was 0.508 ng/mL. The concentration at 8 h [1, 2] was 0.373 ng/mL, the concentration at 12 h [1, 2] was 0.22 ng/mL and the concentration at 15 h [1, 2] was 0.157 ng/mL. It also gave a concentration at 24 h [1, 2] of 0.0931 ng/mL, a concentration at 28 h [1, 2] of 0.0761 ng/mL and a concentration at 32 h [1, 2] of 0.0696 ng/mL. For the same compound, the concentration at 36 h [1, 2] was 0.054 ng/mL, the concentration at 0 h ([1]; male, human, plasma, inhaled, 1000 μg, healthy male subjects, single 1000 μg inhale, N = 16) was under 0.05 ng/mL and the concentration at 0.25 h [1, 3] was 0.0628 ng/mL. It also gave a concentration at 0.5 h [1, 3] of 0.316 ng/mL, a concentration at 0.75 h [1, 3] of 0.622 ng/mL and a concentration at 1 h [1, 3] of 0.869 ng/mL. It also gave a concentration at 1.5 h [1, 3] of 1.16 ng/mL, a concentration at 2 h [1, 3] of 1.2 ng/mL and a concentration at 2.5 h [1, 3] of 1.18 ng/mL. The concentration at 3 h [1, 3] was 1.07 ng/mL, the concentration at 4 h [1, 3] was 0.927 ng/mL and the concentration at 6 h [1, 3] was 0.583 ng/mL. For the same compound, the concentration at 8 h [1, 3] was 0.415 ng/mL, the concentration at 12 h [1, 3] was 0.25 ng/mL and the concentration at 15 h [1, 3] was 0.181 ng/mL. It also gave a concentration at 24 h [1, 3] of 0.106 ng/mL, a concentration at 28 h [1, 3] of 0.0793 ng/mL and a concentration at 32 h [1, 3] of 0.0698 ng/mL. The concentration at 36 h [1, 3] was 0.058 ng/mL, the concentration at 0 h ([1]; male, human, plasma, iv, 100 μg, healthy male subjects, 100 μg IV infusion over 2 h, N = 15) was under 0.05 ng/mL and the concentration at 0.25 h [1, 4] was 1.76 ng/mL. For the same compound, the concentration at 0.5 h [1, 4] was 2.52 ng/mL, the concentration at 0.75 h [1, 4] was 2.68 ng/mL and the concentration at 1 h [1, 4] was 2.99 ng/mL. For the same compound, the concentration at 1.5 h [1, 4] was 3.15 ng/mL, the concentration at 2 h [1, 4] was 3.07 ng/mL and the concentration at 2.083 h ([1]; male, human, plasma, iv, 100 μg, healthy male subjects, 100 μg IV infusion over 2 h, N = 15, 2.083 h after dose, read-out: Geometric mean of plasma concentrations) was 2.57 ng/mL. The concentration at 2.25 h ([1]; male, human, plasma, iv, 100 μg, healthy male subjects, 100 μg IV infusion over 2 h, N = 15, 2.25 h after dose, read-out: Geometric mean of plasma concentrations) was 1.42 ng/mL, the concentration at 2.5 h [1, 4] was 0.559 ng/mL and the concentration at 2.75 h ([1]; male, human, plasma, iv, 100 μg, healthy male subjects, 100 μg IV infusion over 2 h, N = 15, 2.75 h after dose, read-out: Geometric mean of plasma concentrations) was 0.264 ng/mL. It also gave a concentration at 3 h [1, 4] of 0.132 ng/mL, a concentration at 0 h ([1]; male, human, plasma, po, 1000 μg, healthy male subjects, single 1000 μg oral, N = 16) of under 0.05 ng/mL and a concentration at 0.25 h [1, 5] of 0.777 ng/mL. The concentration at 0.5 h [1, 5] was 3.64 ng/mL, the concentration at 0.75 h [1, 5] was 5.28 ng/mL and the concentration at 1 h [1, 5] was 5.68 ng/mL. The concentration at 1.5 h [1, 5] was 4.69 ng/mL, the concentration at 2 h [1, 5] was 3.32 ng/mL and the concentration at 2.5 h [1, 5] was 2.26 ng/mL. The concentration at 3 h [1, 5] was 1.6 ng/mL, the concentration at 4 h [1, 5] was 1.01 ng/mL and the concentration at 6 h [1, 5] was 0.424 ng/mL. It also gave a concentration at 8 h [1, 5] of 0.233 ng/mL, a concentration at 12 h [1, 5] of 0.126 ng/mL and a concentration at 15 h [1, 5] of 0.0714 ng/mL. For the same compound, the “steady state of cGMP concentration reached after days of treatment” value (sGC) was at most 11 days.
